In assay [1] the target is T1, K-Ras G12V (Homo sapiens, UniProt P01116, G12V). The experiment in a line: SOS1 catalyzed nucleotide exchange assay (GDP form K-Ras), K-Ras G12V. The following applies: read-out: K-Ras G12V GDP Biochemical Activity (IC50).
In the next assay the target is K-Ras G12D (Homo sapiens, UniProt P01116, G12D). The assay is described as follows: biochemical.
The next assay deals with K-Ras WT (Homo sapiens, UniProt P01116). The experiment in a line: SOS1 catalyzed nucleotide exchange assay (GDP form K-Ras), K-Ras WT. The following applies: read-out: K-Ras WT GDP Biochemical Activity (IC50).
Chain of K-Ras WT (P01116 1-169 isoform P01116-2): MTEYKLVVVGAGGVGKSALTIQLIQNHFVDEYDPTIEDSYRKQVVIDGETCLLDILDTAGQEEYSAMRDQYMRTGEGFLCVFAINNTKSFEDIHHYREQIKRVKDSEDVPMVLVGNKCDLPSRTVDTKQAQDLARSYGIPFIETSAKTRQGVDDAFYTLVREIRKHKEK
Assay [2] deals with p-ERK in AGS cells (K-Ras G12D). The experiment in a line: Phospho-ERK1/2(THR202/TYR204) HTRF assay, AGS. It counts as cell-based. The following applies: Homo sapiens, 2 h, 2 hours incubation. (In general: Time-resolved FRET reads energy transfer from a long-lived donor to a nearby acceptor.)
In assay [3] the test system is p-ERK in SW620 cells (K-Ras G12V). The experiment in a line: Phospho-ERK1/2(THR202/TYR204) HTRF assay, SW620. It counts as cell-based. The following applies: Homo sapiens, SW-620, 2 h, 2 hours incubation.
Another assay concerns AGS cells (K-Ras G12D). The experiment in a line: 2D cell growth inhibition assay, AGS. It counts as cell-based. Conditions: Homo sapiens, 144 h, 6 days, absolute IC50.
For assay [4], the system named is AsPC-1 cells (K-Ras G12D). The experiment in a line: 2D cell growth inhibition assay, AsPC-1. It counts as cell-based. The following applies: Homo sapiens, ASPC1, 144 h, AsPC-1, K-Ras G12D, 6 days, absolute IC50.
In a further assay the test system is SW620 cells (K-Ras G12V). The assay is described as follows: 2D cell growth inhibition assay, SW620. The following applies: Homo sapiens, SW-620, 144 h, 6 days, absolute IC50. It counts as cell-based.
Assay [5] concerns the target T1, K-Ras G12V. The assay is described as follows: biochemical.

The values that follow come from patent publication US20250019377A1 (JACOBIO PHARMACEUTICALS CO., LTD, priority 2021, published 2025).

The structures appear in SMILES notation.

Chain of K-Ras G12D (P01116 1-169 isoform P01116-2 G12D): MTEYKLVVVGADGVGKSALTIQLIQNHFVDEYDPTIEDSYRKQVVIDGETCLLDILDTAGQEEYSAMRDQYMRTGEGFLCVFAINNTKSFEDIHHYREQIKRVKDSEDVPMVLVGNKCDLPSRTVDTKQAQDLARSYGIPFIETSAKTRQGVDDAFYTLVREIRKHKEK
T1 sequence (P01116 1-169 isoform P01116-2 G12V): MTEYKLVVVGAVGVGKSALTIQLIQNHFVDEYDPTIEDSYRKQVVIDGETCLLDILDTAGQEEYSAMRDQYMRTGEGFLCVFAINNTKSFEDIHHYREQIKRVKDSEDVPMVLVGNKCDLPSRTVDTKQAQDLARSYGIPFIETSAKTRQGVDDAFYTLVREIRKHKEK

The IC50 is the point on the concentration scale where inhibition reaches its midpoint. `C#Cc1c(F)ccc2cc(OP(=O)(OCC)OCC)cc(-c3ncc4c(N5CCCOCC5)nc(OC[C@@]56CCCN5C[C@H](F)C6)nc4c3F)c12` [Compound 75, diethyl (5-ethynyl-6-fluoro-4-(8-fluoro-2-(((2R,7aS)-2-fluorotetrahydro-1H-pyrrolizin-7a(5H)-yl)methoxy)-4-(1,4-oxazepan-4-yl)pyrido[4,3-d]pyrimidin-7-yl)naphthalen-2-yl) phosphate trifluoroacetic acid]: the IC50 was 51.4 nM at K-Ras G12V [1] and 38.4 nM against K-Ras G12D.

As for `C#Cc1c(F)ccc2cc(OC(=O)c3c(C)cccc3N)cc(-c3ncc4c(N5CCCOCC5)nc(OC[C@@]56CCCN5C[C@H](F)C6)nc4c3F)c12` [Compound 70, 5-ethynyl-6-fluoro-4-(8-fluoro-2-(((2R,7aS)-2-fluorotetrahydro-1H-pyrrolizin-7a(5H)-yl)methoxy)-4-(1,4-oxazepan-4-yl)pyrido[4,3-d]pyrimidin-7-yl)naphthalen-2-yl 2-amino-6-methylbenzoate trifluoroacetic acid], the values for the IC50 at K-Ras G12V [1] and against K-Ras G12D were 27.1 nM and 30 nM, respectively.

`C#Cc1c(F)ccc2cc(OC(=O)CCCC[C@@H]3SC[C@@H]4NC(=O)N[C@@H]43)cc(-c3ncc4c(N5CCCOCC5)nc(OC[C@@]56CCCN5C[C@H](F)C6)nc4c3F)c12` [Compound 63, 5-ethynyl-6-fluoro-4-(8-fluoro-2-(((2R,7aS)-2-fluorotetrahydro-1H-pyrrolizin-7a(5H)-yl)methoxy)-4-(1,4-oxazepan-4-yl)pyrido[4,3-d]pyrimidin-7-yl)naphthalen-2-yl 5-((3aS,4S,6aR)-2-oxohexahydro-1H-thieno[3,4-d]imidazol-4-yl)pentanoate trifluoroacetic acid]: the IC50 on K-Ras G12V [1] was found to be 1.63 nM; against K-Ras G12D, 1.22 nM.

Regarding `C#Cc1c(F)ccc2cc(OCOC)cc(-c3ncc4c(N5CCCOC[C@@H]5C)nc(OC[C@@]56CCCN5C[C@H](F)C6)nc4c3F)c12` [Compound 69, (S)-4-(7-(8-ethynyl-7-fluoro-3-(methoxymethoxy)naphthalen-1-yl)-8-fluoro-2-(((2R,7aS)-2-fluorotetrahydro-1H-pyrrolizin-7a(5H)-yl)methoxy)pyrido[4,3-d]pyrimidin-4-yl)-3-methyl-1,4-oxazepane trifluoroacetic acid], the concentration for half-maximal inhibition (IC50) amounted to 202 nM at K-Ras G12V [1] and 119 nM at K-Ras G12D.

In the case of `C#Cc1c(F)ccc2cc(OC(=O)/C=C/c3ccccc3)cc(-c3ncc4c(N5CCCOCC5)nc(OC[C@@]56CCCN5C[C@H](F)C6)nc4c3F)c12` [Compound 48, 5-ethynyl-6-fluoro-4-(8-fluoro-2-(((2R,7aS)-2-fluorotetrahydro-1H-pyrrolizin-7a(5H)-yl)methoxy)-4-(1,4-oxazepan-4-yl)pyrido[4,3-d]pyrimidin-7-yl)naphthalen-2-yl cinnamate trifluoroacetic acid], the IC50 on K-Ras G12V [1] came out at 4.32 nM; on K-Ras G12D, 5.86 nM.

For `C#Cc1c(F)ccc2cc(OC(=O)NC)cc(-c3ncc4c(N5CCCOCC5)nc(OC[C@@]56CCCN5C[C@H](F)C6)nc4c3F)c12` [Compound 67, 5-ethynyl-6-fluoro-4-(8-fluoro-2-(((2R,7aS)-2-fluorotetrahydro-1H-pyrrolizin-7a(5H)-yl)methoxy)-4-(1,4-oxazepan-4-yl)pyrido[4,3-d]pyrimidin-7-yl)naphthalen-2-yl methylcarbamate trifluoroacetic acid], the concentration for half-maximal inhibition (IC50) on K-Ras G12V [1] was 7.32 nM; on K-Ras G12D, 5.5 nM.

Turning to `C#Cc1c(F)ccc2cc(OC(=O)C(c3ccccc3)N3CCCCC3)cc(-c3ncc4c(N5CCCOCC5)nc(OC[C@@]56CCCN5C[C@H](F)C6)nc4c3F)c12` (stereo partly drawn) [Compound 55, 5-ethynyl-6-fluoro-4-(8-fluoro-2-(((2R,7aS)-2-fluorotetrahydro-1H-pyrrolizin-7a(5H)-yl)methoxy)-4-(1,4-oxazepan-4-yl)pyrido[4,3-d]pyrimidin-7-yl)naphthalen-2-yl 2-phenyl-2-(piperidin-1-yl)acetate], the results for the IC50 at K-Ras G12V [1] and against K-Ras G12D were 2.12 nM and 1.35 nM, respectively.

In the case of `C#Cc1c(F)ccc2cc(OC(=O)NCC)cc(-c3ncc4c(N5CCCOCC5)nc(OC[C@@]56CCCN5C[C@H](F)C6)nc4c3F)c12` [Compound 57, 5-ethynyl-6-fluoro-4-(8-fluoro-2-(((2R,7aS)-2-fluorotetrahydro-1H-pyrrolizin-7a(5H)-yl)methoxy)-4-(1,4-oxazepan-4-yl)pyrido[4,3-d]pyrimidin-7-yl)naphthalen-2-yl ethylcarbamate trifluoroacetic acid], the figures for the IC50 at K-Ras G12V [1] and at K-Ras G12D were 9.28 nM and 5.39 nM, respectively.

Consider `C#Cc1c(F)ccc2cc(OS(=O)(=O)c3ccc([N+](=O)[O-])cc3)cc(-c3ncc4c(N5CCCOCC5)nc(OC[C@@]56CCCN5C[C@H](F)C6)nc4c3F)c12` [Compound 56, 5-ethynyl-6-fluoro-4-(8-fluoro-2-(((2R,7aS)-2-fluorotetrahydro-1H-pyrrolizin-7a(5H)-yl)methoxy)-4-(1,4-oxazepan-4-yl)pyrido[4,3-d]pyrimidin-7-yl)naphthalen-2-yl 4-nitrobenzenesulfonate trifluoroacetic acid], for which the concentration for half-maximal inhibition (IC50) on K-Ras G12V [1] amounted to 3.91 nM; on K-Ras G12D it was 4.69 nM.

With `C#Cc1c(F)ccc2cc(OC(=O)N(C)CC(=O)OCC)cc(-c3ncc4c(N5CCCOCC5)nc(OC[C@@]56CCCN5C[C@H](F)C6)nc4c3F)c12` [Compound 71, ethyl N-(((5-ethynyl-6-fluoro-4-(8-fluoro-2-(((2R,7aS)-2-fluorotetrahydro-1H-pyrrolizin-7a(5H)-yl)methoxy)-4-(1,4-oxazepan-4-yl)pyrido[4,3-d]pyrimidin-7-yl)naphthalen-2-yl)oxy)carbonyl)-N-methylglycinate trifluoroacetic acid], the IC50 came out at 180 nM at K-Ras G12V [1] and 163 nM on K-Ras G12D.

On to `C#Cc1c(F)ccc2cc(OS(=O)(=O)c3ccccc3)cc(-c3ncc4c(N5CCCOCC5)nc(OC[C@@]56CCCN5C[C@H](F)C6)nc4c3F)c12` [Compound 68, 5-ethynyl-6-fluoro-4-(8-fluoro-2-(((2R,7aS)-2-fluorotetrahydro-1H-pyrrolizin-7a(5H)-yl)methoxy)-4-(1,4-oxazepan-4-yl)pyrido[4,3-d]pyrimidin-7-yl)naphthalen-2-yl benzenesulfonate trifluoroacetic acid], for which the half-inhibitory concentration (IC50) came to 1130 nM on K-Ras G12V [1] and 438 nM on K-Ras G12D.

`C#Cc1c(F)ccc2cc(O)cc(-c3c(Cl)cc4c(N5CCCOCC5)nc(OC[C@@]56CCCN5C[C@H](F)C6)nc4c3F)c12` [Compound 19, 4-(6-chloro-8-fluoro-2-(((2R,7aS)-2-fluorotetrahydro-1H-pyrrolizin-7a(5H)-yl)methoxy)-4-(1,4-oxazepan-4-yl)quinazolin-7-yl)-5-ethynyl-6-fluoronaphthalen-2-ol trifluoroacetic acid]: the IC50 on K-Ras G12V [1] was 9.69 nM; at K-Ras WT, 16.3 nM; in assay [2] it was 47.9 nM; in [3], 52.5 nM; in the assay with AGS cells (K-Ras G12D) it was 5510 nM; in assay [4] it was 2370 nM. The IC50 turned out to be 119 nM in the assay with SW620 cells (K-Ras G12V) and 221 nM at K-Ras G12V [5].

As to `C#Cc1c(F)ccc2cc(O)cc(-c3ncc4c(N5CCOCC(C(F)(F)F)C5)nc(OC[C@@]56CCCN5C[C@H](F)C6)nc4c3F)c12` (stereo partly drawn) [Compound 125, 5-ethynyl-6-fluoro-4-(8-fluoro-2-(((2R,7aS)-2-fluorotetrahydro-1H-pyrrolizin-7a(5H)-yl)methoxy)-4-(6-(trifluoromethyl)-1,4-oxazepan-4-yl)pyrido[4,3-d]pyrimidin-7-yl)naphthalen-2-ol], the IC50 on K-Ras G12V [1] was 3.35 nM; at K-Ras WT, 2.16 nM; in [2], 9.51 nM; in assay [3], 22.5 nM; in the assay with AGS cells (K-Ras G12D), 18.4 nM; in assay [4] it was 124 nM. Also, the results for the IC50 in the assay with SW620 cells (K-Ras G12V) and against K-Ras G12V [5] were 31.6 nM and 286 nM, respectively.

As for `C#Cc1c(F)ccc2cc(O)cc(-c3ncc4c(N5CC(F)COCC5C)nc(OC[C@@]56CCCN5C[C@H](F)C6)nc4c3F)c12` (stereo partly drawn) [Compound 31, 5-ethynyl-6-fluoro-4-(8-fluoro-4-(6-fluoro-3-methyl-1,4-oxazepan-4-yl)-2-(((2R,7aS)-2-fluorotetrahydro-1H-pyrrolizin-7a(5H)-yl)methoxy)pyrido[4,3-d]pyrimidin-7-yl)naphthalen-2-ol], the IC50 on K-Ras G12V [1] stood at 2.47 nM; on K-Ras WT it was 2.61 nM; in assay [2] it was 3.62 nM; in assay [3] it was 12.8 nM; in the assay with AGS cells (K-Ras G12D), 5.92 nM; in [4], 60.9 nM. Moreover, the IC50 with SW620 cells (K-Ras G12V) stood at 22.6 nM; against K-Ras G12V [5], 49.1 nM.

Turning to `C#Cc1c(F)ccc2cc(OC(=O)N(C)CCNC)cc(-c3ncc4c(N5CCCOCC5)nc(OC[C@@]56CCCN5C[C@H](F)C6)nc4c3F)c12` [Compound 54, 5-ethynyl-6-fluoro-4-(8-fluoro-2-(((2R,7aS)-2-fluorotetrahydro-1H-pyrrolizin-7a(5H)-yl)methoxy)-4-(1,4-oxazepan-4-yl)pyrido[4,3-d]pyrimidin-7-yl)naphthalen-2-yl methyl(2-(methylamino)ethyl)carbamate trifluoroacetic acid], on K-Ras G12D, the IC50 is 1.01 nM.
